In test [1] the test system is neural derivates of murine embryonal stem cells. Description: NMDA excitotoxic insult, survival of neural derivates of murine embryonal stem cells (calcium imaging). Type of test: cell-based. Particulars: 200 μM NMDA; for survival rate after excitotoxic insult: 100 μM compound, NMDA alone 15.6% (16%).
Another test deals with T1, CRMP-2 (Rattus norvegicus, UniProt P47942).
T1 construct: from tissue; host or cells: rat brain (extract/fractions)
Nature of the test: biological pull-down (Affinity Fishhook) with biotinylated affinity reagents in rat brain. Type of test: binding. The following applies: biotinyl affinity reagent. As to the method: Biological pull-down experiments (“Affinity Fishhook”) were performed by incubating a set of four Lacosamide-related affinity-reagents with biotinyl-moieties (R)—N-Benzyl-2-acetamido-6-[Nε-(biotinyl)-2-isothiocynato-6-aminohexanamido]-aminohexanamide((R)-7), (S)—N-Benzyl-2-acetamido-6-[Nε-(biotinyl)-2-isothiocynato-6-aminohexanamido]-aminohexanamide((S)-7), (R)—N-{3-[Nε-(biotinyl)-2-isothiocynato-6-aminohexanamide]-benzyl}-2-acetamido-3-methoxypropion-amide((R)-34) and (R)—N-{4-[Nε-(biotinyl)-2-isothiocynato-6-aminohexanamide]-benzyl}-2-acetamido-3-methoxypropion-amide((R)-35) to rat brain.
(a) The pattern of affinity captured proteins is completely different from raw extracts and controls and the protein is consistently captured under a variety of conditions.

Another test concerns the target T2, human CRMP-2 (Homo sapiens, UniProt Q16555).
T2 construct: expressed in transfected cells; host or cells: Xenopus oocytes (crude membranes)
Nature of the test: competition protein binding with [14C]-labeled lacosamide, crude membranes from CRMP-2 transfected Xenopus oocytes. How it is done:
It was therefore the object of the present invention to provide a method of identifying compounds suitable for the prevention, alleviation or/and treatment of diseases or conditions which can be treated by Lacosamide, based on the mode of action of Lacosamide. […] The binding was confirmed in experiments employing heterologously expressed human CRMP-2 in Xenopus oocytes.
Based on the results of the previous study, the present binding curve ranged from 1 to 100 μM (10 concentrations, in triplicates).

Test [2] has as its system hippocampal primary cells. Nature of the test: axon growth in hippocampal primary cells (Tau-1 immunofluorescence). Format: cell-based. The following applies: for BDNF-induced axonal growth: 200 ng/ml BDNF. As to the method:
It could be shown that the neurotrophins NT3 and BDNF stimulate axonal outgrowth in a primary culture of embryonal hippocampal neurons. Quantification of neurite outgrowth was performed by immunofluorescence microscopy employing an antibody against the axonal marker protein Tau-1.

Molecules are shown by their SMILES. Entries after “also recorded” stand apart in the source; their conditions may differ.

As to `COC[C@H](NC(C)=O)C(=O)NCc1ccccc1` (single isomer, unassigned) [S-enantiomer of lacosamide], the “survival rate after excitotoxic insult” value in test [1] (listed as S-enantiomer) is recorded as “only a minor effect”.
Consider `CC(=O)N[C@H](CCCCNC(=O)C(CCCCNC(=O)CCCC[C@@H]1SC[C@@H]2NC(=O)N[C@@H]21)N=C=S)C(=O)NCc1ccccc1` (stereo partly drawn) [(R)-7, (R)—N-Benzyl-2-acetamido-6-[Nε-(biotinyl)-2-isothiocynato-6-aminohexanamido]-aminohexanamide], for which the “proteins captured in pull-down” value at CRMP-2 is reported as “enrichment of an overlapping set of proteins, including collapsing response mediator protein (CRMP-2)”.
For `COC[C@@H](NC(C)=O)C(=O)NCc1cccc(NC(=O)C(CCCCNC(=O)CCCCC2SCC3NC(=O)NC32)N=C=S)c1` (stereo partly drawn) [(R)-34, (R)—N-{3-[Nε-(biotinyl)-2-isothiocynato-6-aminohexanamide]-benzyl}-2-acetamido-3-methoxypropion-amide], the “proteins captured in pull-down” value at CRMP-2 is on record as “enrichment of an overlapping set of proteins, including collapsing response mediator protein (CRMP-2)”.
On the same count and under the same terms, the result for `COC[C@@H](NC(C)=O)C(=O)NCc1ccc(NC(=O)C(CCCCNC(=O)CCCCC2SCC3NC(=O)NC32)N=C=S)cc1` (stereo partly drawn) [(R)-35, (R)—N-{4-[Nε-(biotinyl)-2-isothiocynato-6-aminohexanamide]-benzyl}-2-acetamido-3-methoxypropion-amide] reads “enrichment of an overlapping set of proteins, including collapsing response mediator protein (CRMP-2)”; that for `CC(=O)N[C@@H](CCCCNC(=O)C(CCCCNC(=O)CCCC[C@@H]1SC[C@@H]2NC(=O)N[C@@H]21)N=C=S)C(=O)NCc1ccccc1` (stereo partly drawn) [(S)-7, (S)—N-Benzyl-2-acetamido-6-[Nε-(biotinyl)-2-isothiocynato-6-aminohexanamido]-aminohexanamide], “enrichment of an overlapping set of proteins, including collapsing response mediator protein (CRMP-2)”.
As to `COC[C@@H](NC(C)=O)C(=O)NCc1ccccc1` [Lacosamide, (R)-2-acetamide-N-benzyl-3-methoxypropionamide], the “survival rate after excitotoxic insult” value in test [1] worked out at 71%. Moreover, in test [1] (CRMP-2 siRNA pre-incubation), the “neuroprotective effect after pre-incubation with CRMP-2 siRNA” value was “diminished”. Further, at human CRMP-2, the Kd is below 5 µM. In addition, at human CRMP-2 ([14C]-lacosamide, binding curve 1 to 100 μM), the Bmax result is given as “about 200 pM/mg”. Moreover, the specific binding entry at human CRMP-2 (crude membranes from CRMP-2 transfected Xenopus oocytes, 1 to 100 μM) was “competitive and specific binding was observed”. For the same compound, in test [2] (50 ng/ml NT3, 100 μM Lacosamide), the NT3-induced axonal growth result is reported as “significantly decreases”. In addition, the BDNF-induced axonal growth result in test [2] (1 μM Lacosamide) and in test [2] (100 μM Lacosamide) was “significantly decreases” throughout. For the same compound, the “basal axonal outgrowth (axon length)” value in test [2] (Lacosamide 1-200 μM, no neurotrophin) was “does not significantly change; also recorded: did not significantly change”. Also, the NT3-induced neuronal outgrowth result in test [2] (concentration not stated in text (FIG. 2)) was “attenuated”. The BDNF-induced neuronal outgrowth result in test [2] (concentration not stated in text (FIG. 3)) is “attenuated”.

A word on the Kd: it is the equilibrium constant for the complex coming apart.

For the origin of these results see US20090241205A1, “METHOD FOR IDENTIFYING CRMP MODULATORS” (priority 2006, published 2009).
